Earlier results on 33 molecules are cited in PMC11187573, “Identification of SARS-CoV-2 Mpro inhibitors through deep reinforcement learning for de novo drug design and computational chemistry approaches” (RSC Medicinal Chemistry, 2024).

Read-outs that look alike come from different tables or passages of the source.

The term IC50 denotes the concentration that inhibits the measured activity by half.

Data set [1] deals with SARS, SARS-CoV-2 and MERS Mpro. The note with it: cited from earlier work.
The next data set concerns Mpro. The note with it: ML dataset, cited from earlier work.
Setting [2] is: Origin COVID_Moonshot, ref COVID Moonshot.

For `CN(C)c1ccc(N(Cc2cccc(Cl)c2)C(=O)Cn2nnc3ccccc32)cc1` [ALP-POS-6d04362c-2, CN(C)c(cc1)ccc1N(Cc1cccc(Cl)c1)C(Cn1nnc2c1cccc2)=O, reference compound], the IC50 in data set [1] (setting [2]) is 0.497 µM; in the data set with Mpro (setting [2]), 0.444 µM.
Consider `O=C(Nc1cncc2ccccc12)C1CCCc2ccc(Cl)cc21` (stereo not drawn) [ALP-POS-477dc5b7-1, O=C(C(CCC1)c2c1ccc(Cl)c2)Nc1cncc2ccccc12, reference compound], for which the IC50 is 0.324 µM in data set [1] (setting [2]) and 0.307 µM in the data set with Mpro (setting [2]).
For `O=C1N(Cc2cccc(Cl)c2)CCN1c1nccc2[nH]ncc12` [ALP-POS-91609ae9-3, O=C(N(Cc1cccc(Cl)c1)CC1)N1c1nccc2c1cn[nH]2, reference compound], the IC50 was 4.56 µM in data set [1] (setting [2]) and 3.73 µM in the data set on Mpro (setting [2]).
As to `CC(C)Nc1cccnc1N1CCN(C(=O)c2cc3cc(NS(C)(=O)=O)ccc3[nH]2)CC1` [CHEMBL929, CC(C)Nc1cccnc1N(CC1)CCN1C(c1cc(cc(cc2)NS(C)(=O)=O)c2[nH]1)=O, reference compound], the IC50 is 3.99 µM in data set [1] (Origin ChEMBL, ref ChEMBL) and 3.99 µM in the data set with Mpro (Origin ChEMBL, ref ChEMBL).
With `Cc1c(-c2cnccn2)ssc1=S` [CHEMBL178459, CC1=C(c2nccnc2)SSC1=S, reference compound], the IC50 in data set [1] (Origin ChEMBL, ref ChEMBL) is 0.415 µM; with Mpro (Origin ChEMBL, ref ChEMBL), 0.415 µM.
For `COc1nc2ccc(Br)cc2cc1[C@@H](c1ccccc1)[C@@](O)(CCN(C)C)c1cccc2ccccc12` [CHEMBL376488, CN(C)CC[C@]([C@H](c1ccccc1)c(cc(cc(cc1)Br)c1n1)c1OC)(c1cccc2ccccc12)O, reference compound], the IC50 in data set [1] (Origin ChEMBL, ref ChEMBL) is 4.36 µM; in the data set on Mpro (Origin ChEMBL, ref ChEMBL) it was 4.36 µM.
Turning to `CC(CN1CC(=O)NC(=O)C1)N1CC(=O)NC(=O)C1` (stereo not drawn) [CHEMBL444186, CC(CN(CC(N1)=O)CC1=O)N(CC(N1)=O)CC1=O, reference compound], the IC50 in data set [1] (Origin ChEMBL, ref ChEMBL) was 3.19 µM; with Mpro (Origin ChEMBL, ref ChEMBL), 3.19 µM.
Turning to `Nc1ccc(O)c2ncccc12` [CHEMBL449298, Nc(c1cccnc11)ccc1O, reference compound], the IC50 in data set [1] (Origin ChEMBL, ref ChEMBL) was 2.05 µM; in the data set on Mpro (Origin ChEMBL, ref ChEMBL) it was 2.05 µM.
With `CN1CC[C@@]2(C)c3cc(O)ccc3N(C)[C@@H]12` [CHEMBL1256915, C[C@]12c(cc(cc3)O)c3N(C)[C@H]1N(C)CC2, reference compound], the IC50 was 1.99 µM in data set [1] (Origin ChEMBL, ref ChEMBL) and 1.99 µM in the data set with Mpro (Origin ChEMBL, ref ChEMBL).
Regarding `COc1cc(C(=S)N2CCOCC2)ccc1O` [CHEMBL1380480, COc(cc(cc1)C(N2CCOCC2)=S)c1O, reference compound], the IC50 in data set [1] (Origin ChEMBL, ref ChEMBL) is 1.32 µM; in the data set on Mpro (Origin ChEMBL, ref ChEMBL), 1.32 µM.
`c1ccc2sc(SNC3CCCCC3)nc2c1` [CHEMBL1591074, C(CC1)CCC1NSc1nc(cccc2)c2s1, reference compound]: the IC50 is 0.77 µM in data set [1] (Origin ChEMBL, ref ChEMBL) and 0.77 µM with Mpro (Origin ChEMBL, ref ChEMBL).
Turning to `CC(C)c1cc(CNc2nc(Nc3cc(C4CC4)[nH]n3)cc(N3CCN(C)CC3)n2)on1` [CHEMBL3545085, CC(C)c1noc(CNc2nc(N3CCN(C)CC3)cc(Nc3n[nH]c(C4CC4)c3)n2)c1, reference compound], the IC50 was 1.49 µM in data set [1] (Origin ChEMBL, ref ChEMBL) and 1.49 µM in the data set with Mpro (Origin ChEMBL, ref ChEMBL).
Regarding `O=c1sn(-c2cccc3ccccc23)c(=O)n1Cc1ccccc1` [CHEMBL3545157, O=C(N1Cc2ccccc2)N(c2cccc3ccccc23)SC1=O, reference compound], the IC50 was 0.115 µM in data set [1] (Origin ChEMBL, ref ChEMBL) and 0.115 µM in the data set with Mpro (Origin ChEMBL, ref ChEMBL).
For the molecule `Cc1ccc(N(Cc2cccc(Cl)c2)C(=O)Cn2nnc3ccccc32)cc1` [CHO-MSK-00c5269a-1, Cc(cc1)ccc1N(Cc1cccc(Cl)c1)C(Cn1nnc2c1cccc2)=O, reference compound], the IC50 is 2.33 µM in data set [1] (setting [2]) and 2.82 µM with Mpro (setting [2]).
For the molecule `O=C(Nc1cncc2ccccc12)N(CCC1CCCCC1)c1cccc(Cl)c1` [EDJ-MED-c314995a-1, O=C(Nc1cncc2ccccc12)N(CCC1CCCCC1)c1cccc(Cl)c1, reference compound], the IC50 in data set [1] (setting [2]) is 0.261 µM; in the data set with Mpro (setting [2]) it was 0.621 µM.
As for `C=CC(=O)N(c1ccc(C(C)(C)C)cc1)C(C(=O)NCCc1cccc(F)c1)c1cccnc1` (stereo not drawn) [LON-WEI-adc59df6-47, CC(C)(C)c(cc1)ccc1N(C(C(NCCc1cccc(F)c1)=O)c1cnccc1)C(C=C)=O], in data set [1] (setting [2]), the IC50 is 2.96 µM.
As to `CS(=O)(=O)c1ncc(Cl)c(C(=O)Nc2ccccc2Cc2ccccc2)n1` [LON-WEI-ff7b210a-4, CS(c(nc1)nc(C(Nc2c(Cc3ccccc3)cccc2)=O)c1Cl)(=O)=O], in data set [1] (setting [2]), the IC50 was 0.503 µM.
As for `CCOC(=O)c1nc(S(C)(=O)=O)ncc1Cl` [LON-WEI-ff7b210a-5, CCOC(c(nc(nc1)S(C)(=O)=O)c1Cl)=O], in data set [1] (setting [2]), the IC50 was 1.6 µM.
`O=C(CCl)N1CCN(S(=O)(=O)C2=CC[SH]=C2)CC1` [MAK-UNK-d4768348-1, O=C(CCl)N(CC1)CCN1S(C1=CCS=C1)(=O)=O]: the IC50 in data set [1] (setting [2]) was 1.63 µM.
As to `COc1ccc(C2CC(c3cccs3)=NN2C(=O)CCl)cc1OC` (stereo not drawn) [MAT-POS-916a2c5a-1, COc(ccc(C(C1)N(C(CCl)=O)N=C1c1cccs1)c1)c1OC], the IC50 in data set [1] (setting [2]) is 1.87 µM.
Regarding `O=C(CCl)N1CCN(Cc2cccc(Cl)c2)CC1` [MED-COV-4280ac29-15, O=C(CCl)N1CCN(Cc2cccc(Cl)c2)CC1], in data set [1] (setting [2]), the IC50 is 2.84 µM.
Take `COc1ccc(C2CC(c3ccccc3)=NN2C(=O)CCl)cc1OC` (stereo not drawn) [MED-COV-4280ac29-30, COc(ccc(C(C1)N(C(CCl)=O)N=C1c1ccccc1)c1)c1OC]: the IC50 in data set [1] (setting [2]) was 0.543 µM.
Consider `COCc1cc(Cl)cc(CN2CCN(C(=O)CCl)CC2)c1` [MED-COV-4280ac29-33, COCc1cc(CN(CC2)CCN2C(CCl)=O)cc(Cl)c1], for which the IC50 in data set [1] (setting [2]) was 4.77 µM.
For `COCCc1ccc(Cl)cc1CN1CCN(C(=O)CCl)CC1` [MED-COV-4280ac29-37, COCCc(cc1)c(CN(CC2)CCN2C(CCl)=O)cc1Cl], the IC50 in data set [1] (setting [2]) was 2.2 µM.
For the molecule `NS(=O)(=O)CCc1ccccc1CN1CCN(C(=O)CCl)CC1` [MIH-UNI-e573136b-5, NS(CCc1c(CN(CC2)CCN2C(CCl)=O)cccc1)(=O)=O], the concentration for half-maximal inhibition (IC50) in data set [1] (setting [2]) is 2.72 µM.
In the case of `COc1ccc2c(c1)CN(C(=O)CCl)C(c1ccccc1)C2` (stereo not drawn) [NAU-LAT-64f4b287-4, COc1cc(CN(C(C2)c3ccccc3)C(CCl)=O)c2cc1], the IC50 in data set [1] (setting [2]) was 3.74 µM.
Regarding `Cc1cc(Cl)cc(CC2CCN(C(=O)CCl)CC2)c1` [NIR-THE-0d6461ce-8, Cc1cc(Cl)cc(CC(CC2)CCN2C(CCl)=O)c1], the IC50 in data set [1] (setting [2]) was 3.57 µM.
Consider `N#Cc1cccc(C2CN(C(=O)CCl)Cc3ccccc32)c1` (stereo not drawn) [NIR-THE-c331be7a-2, N#Cc1cccc(C(CN(C2)C(CCl)=O)c3c2cccc3)c1], for which the IC50 in data set [1] (setting [2]) was 1.17 µM.
For the molecule `Cc1cccc(C2CN(C(=O)CCl)Cc3ccccc32)c1` (stereo not drawn) [NIR-THE-c331be7a-6, Cc1cccc(C(CN(C2)C(CCl)=O)c3c2cccc3)c1], in data set [1] (setting [2]), the IC50 is 2 µM.
Turning to `O=C(CCl)N1CCN(Cc2cc(Cl)cc(Cl)c2)CC1` [PAU-UNI-8cdd41c7-1, O=C(CCl)N1CCN(Cc2cc(Cl)cc(Cl)c2)CC1], the IC50 in data set [1] (setting [2]) is 1.89 µM.
`O=C(CCl)N1CCN(C(c2ccccc2)c2ccccc2)CC1` [SIM-SYN-f15aaa3a-1, O=C(CCl)N(CC1)CCN1C(c1ccccc1)c1ccccc1]: the IC50 in data set [1] (setting [2]) was 1.98 µM.
With `Cc1cc(C(=O)CCl)c(C)n1CC1COc2ccccc2O1` (stereo not drawn) [TAT-ENA-80bfd3e5-32, Cc1cc(C(CCl)=O)c(C)n1CC1Oc(cccc2)c2OC1], in data set [1] (setting [2]), the IC50 is 2.82 µM.
As to `Cc1ccncc1NC(=O)Cc1cc(Cl)cc(OC2CC(=O)N2)c1` (stereo not drawn) [TRY-UNI-2eddb1ff-7, Cc(ccnc1)c1NC(Cc1cc(Cl)cc(OC(C2)NC2=O)c1)=O], the IC50 in data set [1] (setting [2]) is 3.61 µM.
